Source: US20010044447A1 (priority 1999, published 2001)

Experiments:
[1] = system: motoneurons (trophic activity produced by spinal astrocytes); assay type: cell-based, Wistar rats; details: each product 0.1 μM; astrocyte monolayers exposed 24 hours, conditioned medium taken up 24 hours later; percentage of the number of motoneurons in cultures maintained with BDNF; vehicle alone 44 ± 1.41
Experimental: The motoneurons are plated, at a density of 2500 cells per 35 mm plate, on culture plates previously coated with laminin/ornithine according to the method of A. G. ESTEVEZ et al., J. Neurosci., 18 (3), 923-931 (1998). The cultures are then maintained in L15 medium (GIBCO BRL) containing sodium bicarbonate (22 mM), conalbumin (0.1 mg/ml), putrescine (0.1 mM), insulin (5 μg/ml), sodium selenite (31 nM), glucose (20 mM), progesterone (21 nM), penicillin (100 IU/ml) and streptomycin (100 μg/ml).
The motoneurons thus obtained are composed of large (25-30 μM) and homogeneous neurones with long branched neurites. More than 70% of the cells are immunoreactive for the p75 neurotrophin receptor and the markers Islet 1/2 for the spinal motoneurons. About 70% of the motoneurons die by apoptosis 24 hours after the plating if the culture is carried out in the absence of a trophic factor. […]
The monolayers of astrocytes show a purity of more than 98% determined by immunoreactivity for the glial fibrillary acidic protein (GFAP). […]
The number of motoneurons is evaluated by counting the labelled cells in a surface area of 0.4-1 cm^2 under a microscope with a 200 times magnification.

[2] = system: motoneurons (trophic activity produced by spinal astrocytes); details: H. PELUFFO et al., Neuroscience letters, 228, 207-211 (1997); cited from earlier work

Compound | Motoneuronal survival in % [1] | Production, by the astrocytes, of trophic activity for the motoneurons [2]
CO[C@]12C[C@@H](CO)CN(C)[C@@H]1Cc1cn(C)c3cccc2c13 [lumilysergol, 1,6-dimethyl-8β-hydroxymethyl-10α-methoxyergoline] | 57.4 ± 3.53% | 
Nc1nc2ccc(OC(F)(F)F)cc2s1 [riluzole] |  | stimulated
CO[C@]12C[C@@H](COC(=O)c3cncc(Br)c3)CN(C)[C@@H]1Cc1cn(C)c3cccc2c13 [nicergoline, (8 p)-10-methoxy-1,6-dimethylergoline-8-methanol-5-bromonicotinate] | 44.5 ± 3.53% | 
